Tests used:
[1] = system: 030418-induced respiratory depression rats; settings: rat, in vivo
[2] = mouse, in vivo
[3] = mouse, in vivo; remark: listed apart in the source
[4] = system: 030418-induced acute death in mice; parameters: species or system KM mice; settings: mouse, in vivo
[5] = system: hyperactivity induced by d-amphetamine; settings: in vivo, ip, 2 mg/kg; cited from earlier work
[6] = system: field EPSP in the rat dentate gyrus; settings: in vivo, ip; cited from earlier work

Row | Compound | antagonism toward the decreased respiratory rate and ventilation caused by 030418 [1] | effect on respiratory rate and ventilation compared with Compound a [1] | (AUC0-t)prodrug group/(AUC0-t)prototype drug group [2] | (AUC0-t)prodrug/(AUC0-t)prototype drug [3] | survival rate of mice [4] | molar dose for the same anti-lethal effect, relative to Compound a ([4]; sc, 15 mg/kg) | inhibition of hyperactivity [5] [%] | Death rate [4] [%] | increase in the amplitude of the field EPSP [6] [%]
1 | C/C(=C(\CCOC(=O)CCCC(=O)OC1CCC(N(C)C(=O)c2ccc3nonc3c2)CC1)SSCCC(C)C)N(C)C=O (stereo not drawn) [Compound 15, Pentanedioic acid anti-4-[(benzo[c][1,2,5]oxadiazole-5-carbonyl)-methyl-amino]-cyclohexyl ester 3-isopentyldisulfanyl-4-(formyl-methyl-amino)-pent-3-enyl ester] | dose-dependent antagonism | same effect as Compound a (10 mg/kg) | 0.41 | 2.23 | increase the survival rate of mice in a dose-dependent manner | one-eighth |  |  | 
2 | CN(C(=O)c1ccc2nonc2c1)C1CCC(O)CC1 (stereo not drawn) [Compound a, N-(anti-4-hydroxycyclohexyl)-N-methylbenzo[c][1,2,5]oxadiazol-5-yl-carboxamide, reference compound] |  |  |  |  |  |  | 100 | 20 | 21

Source: patent publication US10759822B2 (priority 2016, dated 2020)
